Among the data in patent US7786046B2, “Benzoyl-substituted serineamides” (BASF Aktiengesellschaft, priority 2005, dated 2010) are melting point values, retold here.

The structures appear in SMILES notation.

For the compound `CNC(=O)C(NC(=O)c1ccc(F)cc1C(F)(F)F)C(O)C(F)(F)F` (racemic) [Compound 3.1, 4-Fluoro-N-(3,3,3-trifluoro-2-hydroxy-1-methylcarbamoylpropyl)-2-trifluoromethylbenzamide], the melting point (in general, the temperature of the solid-liquid transition) came to 212 °C.
The compound `CNC(=O)C(NC(=O)c1ccc(F)cc1C(F)(F)F)C(O)CO` (stereo not shown) [Compound 3.8, 2-(4-Fluoro-2-trifluoromethylbenzoylamino)-3,4-dihydroxy-N-methylbutyramide] displayed a melting point of 163 °C.
Under `C=CC(O)C(NC(=O)c1ccc(F)cc1C(F)(F)F)C(=O)NC` (racemic) [Compound 3.3, N-(2-Hydroxy-1-methylcarbamoylbut-3-enyl)-4-fluoro-2-trifluoromethylbenzamide] stands 163 °C; under `CNC(=O)C(NC(=O)c1ccc(F)cc1C(F)(F)F)C(O)/C(Cl)=C/c1ccccc1` (racemic) [Compound 3.7, N-(3-Chloro-2-hydroxy-1-methylcarbamoyl-4-phenylbut-3-enyl)-4-fluoro-2-trifluoromethylbenzamide], 140 °C.
